Experimental data published in US20260097135A1, “MODIFIED ONCOLYTIC HERPES SIMPLEX VIRUS (oHSV) AND METHODS OF USE THEREOF” (The General Hospital Corporation, priority 2022, published 2026).
“Also recorded” adds a separate entry of the source.

System: human NK cell line NK-92MI
Assay: hIL-12 bioactivity: IFN-γ production by NK-92MI cells (ELISA)
Format: cell-based
Experimental: HIL12 levels were measured with the human p70 Quantikine ELISA kit (R&D Systems, Bio-Techne, Minneapolis, MN). Functional hIL12 was assessed using human NK cell line NK-92MI (ATCC (CRL-2408)) and hIL-12 induced IFN-γ production. Recombinant hIL12 (R-hIL12; R&D Systems) with known functional activity was used as a positive control. NK-92MI cells were seeded in a 48-well plate at 2×10^4 cells/well. hIL12 produced by virus-infected cells 64 hpi or R-hIL12 was added to NK-92MI cell cultures at the indicated concentrations (with or without 10 μg/ml heparin). HIL12-dependent secretion of IFN-γ into the supernatant was quantified after 24 hrs via ELISA (Human IFN-gamma Quantikine ELISA Kits (R&D systems)).

| Molecule | effect of heparin on hIL-12-induced IFN-γ (heparin 10 μg/ml) | hIL-12 induced IFN-γ production by NK-92MI cells (hIL-12 from infected Vero supernatants (64 hpi) or recombinant, 24 hrs) |
| --- | --- | --- |
| heparin | greatly enhanced the activity of hIL12; also recorded: synergizes with hIL-12 in stimulating hIFNγ production | – |
| R-hIL12: recombinant hIL12 (R&D Systems) with known functional activity, positive control (protein, UniProt P29459 23-219; P29460 23-328, looked up) Interleukin-12 subunit alpha: RNLPVATPDPGMFPCLHHSQNLLRAVSNMLQKARQTLEFYPCTSEEIDHEDITKDKTSTVEACLPLELTKNESCLNSRETSFITNGSCLASRKTSFMMALCLSSIYEDLKMYQVEFKTMNAKLLMDPKRQIFLDQNMLAVIDELMQALNFNSETVPQKSSLEEPDFYKTKIKLCILLHAFRIRAVTIDRVMSYLNAS Interleukin-12 subunit beta: IWELKKDVYVVELDWYPDAPGEMVVLTCDTPEEDGITWTLDQSSEVLGSGKTLTIQVKEFGDAGQYTCHKGGEVLSHSLLLLHKKEDGIWSTDILKDQKEPKNKTFLRCEAKNYSGRFTCWWLTTISTDLTFSVKSSRGSSDPQGVTCGAATLSAERVRGDNKEYEYSVECQEDSACPAAEESLPIEVMVDAVHKLKYENYTSSFFIRDIIKPDPPKNLQLKPLKNSRQVEVSWEYPDTWSTPHSYFSLTFCVQVQGKSKREKKDRVFTDKTSATVICRKNASISVRAQDRYYSSSWSEWASVPCS | – | dose-dependent manner |
